Experimental data from US20230136702A1, “Inhibitors of Human Herpesviruses” (The Governors of the University of Alberta, priority 2020, published 2023).
pEC50, pIC50: −log10 of the molar value. Read-outs that look alike come from different tables or passages of the source.

Legend:
hERG potassium channel = target: T1, hERG potassium channel (Homo sapiens, UniProt Q12809); assay: Inhibition of hERG potassium channel, automated patch clamp (SyncroPatch 384PE) in CHO cells; type: cell-based
T1 construct: host or cells: CHO cells stably expressing hERG

[1] = Cytotoxicity in MRC5 cells without virus infection (CCK8); type: cell-based; conditions: human
[2] = target: T2, HCMV DNA polymerase (UL54) (Human cytomegalovirus, UniProt P08546); assay: HCMV DNA polymerase enzyme inhibition assay (ProFoldin, fluorescence); type: biochemical; conditions: 37° C., duplicate, max 40 μM
T2 construct: 6His (C); made in house; host or cells: Sf9 insect cells (baculovirus, pFastBac)

[3] = system: HCMV US3-6-EGFP-HCMV-AD169 strain; assay: In vitro inhibitory (antiviral) activity against HCMV, GFP reporter in MRC5 cells; type: cell-based, Human cytomegalovirus (HCMV); conditions: Human betaherpesvirus 5, AD169, MRC5, 96 h, read-out: HCMV Antiviral EC50 range
Summary of the method: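 MRC5 cells were infected with GFP-reporter virus (MOI=0.1) alongside compounds (8 points, 3-fold dilutions, duplicate; top 40 μM test compounds, 100 μM ganciclovir; 0.5% DMSO final) for 4 days at 37 °C. GFP fluorescence inhibition, normalized to virus and cell controls, gave EC50; viability gave CC50.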

[4] = CHO cells stably expressing hERG, room temperature, 0.494-40.00 μM, read-out: CHO-hERG Activity Range

T1 sequence (Q12809 whole entry): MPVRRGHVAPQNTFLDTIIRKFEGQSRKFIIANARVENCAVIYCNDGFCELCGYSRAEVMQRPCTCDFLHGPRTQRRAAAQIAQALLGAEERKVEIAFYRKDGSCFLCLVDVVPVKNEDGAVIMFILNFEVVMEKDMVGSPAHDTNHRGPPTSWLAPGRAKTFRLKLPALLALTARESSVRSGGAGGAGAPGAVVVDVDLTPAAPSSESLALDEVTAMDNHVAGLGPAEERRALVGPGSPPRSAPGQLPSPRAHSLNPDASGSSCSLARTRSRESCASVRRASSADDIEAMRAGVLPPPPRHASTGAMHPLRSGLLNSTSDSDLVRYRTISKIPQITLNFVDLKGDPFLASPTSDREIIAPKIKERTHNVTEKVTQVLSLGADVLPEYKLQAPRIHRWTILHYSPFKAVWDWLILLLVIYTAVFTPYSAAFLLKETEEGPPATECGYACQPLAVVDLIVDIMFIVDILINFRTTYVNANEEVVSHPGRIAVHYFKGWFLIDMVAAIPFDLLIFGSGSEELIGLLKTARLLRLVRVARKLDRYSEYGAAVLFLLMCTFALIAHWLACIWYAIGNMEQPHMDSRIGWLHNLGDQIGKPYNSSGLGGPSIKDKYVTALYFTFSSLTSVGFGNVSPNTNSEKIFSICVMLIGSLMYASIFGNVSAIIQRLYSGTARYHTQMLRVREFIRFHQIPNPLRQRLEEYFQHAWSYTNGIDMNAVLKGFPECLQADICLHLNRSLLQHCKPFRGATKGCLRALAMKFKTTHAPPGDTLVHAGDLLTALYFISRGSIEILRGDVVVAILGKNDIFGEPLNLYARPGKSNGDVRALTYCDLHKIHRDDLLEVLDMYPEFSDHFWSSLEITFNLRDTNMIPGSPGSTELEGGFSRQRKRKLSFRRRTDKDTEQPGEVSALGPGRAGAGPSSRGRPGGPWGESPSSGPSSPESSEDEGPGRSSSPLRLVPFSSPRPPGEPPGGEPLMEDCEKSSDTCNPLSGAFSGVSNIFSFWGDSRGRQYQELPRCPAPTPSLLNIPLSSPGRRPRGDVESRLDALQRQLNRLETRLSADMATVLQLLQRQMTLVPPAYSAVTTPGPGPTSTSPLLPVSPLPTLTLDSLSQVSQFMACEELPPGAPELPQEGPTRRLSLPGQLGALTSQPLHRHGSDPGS
T2 sequence (P08546 whole entry): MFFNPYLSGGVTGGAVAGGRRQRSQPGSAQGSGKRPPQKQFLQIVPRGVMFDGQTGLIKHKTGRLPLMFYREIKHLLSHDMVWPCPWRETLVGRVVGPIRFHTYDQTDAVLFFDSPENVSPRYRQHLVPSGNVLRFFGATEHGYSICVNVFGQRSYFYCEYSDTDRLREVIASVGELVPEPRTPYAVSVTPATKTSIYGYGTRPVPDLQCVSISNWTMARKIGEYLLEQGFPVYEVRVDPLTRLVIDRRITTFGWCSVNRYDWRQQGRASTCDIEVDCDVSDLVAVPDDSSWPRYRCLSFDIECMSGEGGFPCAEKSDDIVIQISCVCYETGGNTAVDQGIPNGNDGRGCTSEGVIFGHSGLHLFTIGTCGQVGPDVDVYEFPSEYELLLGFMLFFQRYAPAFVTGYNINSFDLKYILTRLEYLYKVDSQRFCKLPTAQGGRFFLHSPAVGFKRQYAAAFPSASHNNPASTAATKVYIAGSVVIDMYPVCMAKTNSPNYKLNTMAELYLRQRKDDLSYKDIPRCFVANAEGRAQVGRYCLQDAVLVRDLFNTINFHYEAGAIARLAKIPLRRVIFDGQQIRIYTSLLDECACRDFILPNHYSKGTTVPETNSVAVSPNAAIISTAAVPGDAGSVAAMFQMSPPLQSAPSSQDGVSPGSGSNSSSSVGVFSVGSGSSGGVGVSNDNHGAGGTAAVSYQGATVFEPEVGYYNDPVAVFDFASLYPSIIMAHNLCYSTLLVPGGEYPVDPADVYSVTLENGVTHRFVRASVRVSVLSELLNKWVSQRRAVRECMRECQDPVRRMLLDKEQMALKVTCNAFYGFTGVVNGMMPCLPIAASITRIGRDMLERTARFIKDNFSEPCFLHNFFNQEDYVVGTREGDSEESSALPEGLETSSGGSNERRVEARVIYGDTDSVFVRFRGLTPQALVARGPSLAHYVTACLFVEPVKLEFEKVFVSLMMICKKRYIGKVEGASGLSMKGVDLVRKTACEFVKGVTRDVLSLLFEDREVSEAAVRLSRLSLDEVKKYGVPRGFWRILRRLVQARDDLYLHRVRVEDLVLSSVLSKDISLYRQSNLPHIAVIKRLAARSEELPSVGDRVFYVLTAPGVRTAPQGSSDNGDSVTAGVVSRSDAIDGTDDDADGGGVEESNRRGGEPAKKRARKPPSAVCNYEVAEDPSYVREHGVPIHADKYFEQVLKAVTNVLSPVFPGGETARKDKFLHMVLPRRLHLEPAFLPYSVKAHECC

Compound: CC1(F)CN(C(=O)Cn2c(=O)c(C(=O)NCc3ccc(Cl)cc3)cc3nc(N4CCN(CC(N)=O)C4=O)cnc32)C1 [Compound 40, 2-[3-(2-amino-2-oxoethyl)-2-oxoimidazolidin-1-yl]-N-[(4-chlorophenyl)methyl]-5-[2-(3-fluoro-3-methylazetidin-1-yl)-2-oxoethyl]-6-oxo-5,6-dihydropyrido[2,3-b]pyrazine-7-carboxamide]
- pIC50 (hERG potassium channel; [4]): < 5.00
- CC50 at 4 days [1]: > 40 µM
- pIC50 [2]: > 6.00
- pEC50 [3]: < 6.00

Compound: CC1(F)CN(C(=O)Cn2c(=O)c(C(=O)NCc3ccc(Cl)cc3)cc3nc(N4CC(=O)NC4=O)cnc32)C1 [Compound 41, N-[(4-chlorophenyl)methyl]-2-(2,4-dioxoimidazolidin-1-yl)-5-[2-(3-fluoro-3-methylazetidin-1-yl)-2-oxoethyl]-6-oxo-5,6-dihydropyrido[2,3-b]pyrazine-7-carboxamide]
- pIC50 (hERG potassium channel; [4]): < 5.00
- CC50 at 4 days [1]: 23 µM
- pIC50 [2]: > 6.00
- pEC50 [3]: < 6.00

Compound: CN(C)CCN1CCN(c2cnc3c(cc(C(=O)NCc4ccc(Cl)cc4)c(=O)n3CC(=O)N3CC(C)(F)C3)n2)C1=O [Compound 42, N-[(4-chlorophenyl)methyl]-2-{3-[2-(dimethylamino)ethyl]-2-oxoimidazolidin-1-yl}-5-[2-(3-fluoro-3-methylazetidin-1-yl)-2-oxoethyl]-6-oxo-5,6-dihydropyrido[2,3-b]pyrazine-7-carboxamide]
- pIC50 (hERG potassium channel; [4]): < 5.00
- CC50 at 4 days [1]: > 40 µM
- pIC50 [2]: < 6.00
- pEC50 [3]: > 6.00

Compound: CC1(C)CN(C(=O)Cn2c(=O)c(C(=O)NCc3ccc(Cl)cc3)cc3nc(N4CCN(C(C)(C)C(=O)O)C4=O)cnc32)C1 [Compound 43, 2-[3-(7-{[(4-chlorophenyl)methyl]carbamoyl}-5-[2-(3,3-dimethylazetidin-1-yl)-2-oxoethyl]-6-oxo-5,6-dihydropyrido[2,3-b]pyrazin-2-yl)-2-oxoimidazolidin-1-yl]-2-methylpropanoic acid]
- pIC50 (hERG potassium channel; [4]): < 5.00
- CC50 at 4 days [1]: > 40 µM
- pIC50 [2]: > 6.00
- pEC50 [3]: > 6.00

Compound: CC(C)(C(=O)O)N1CCN(c2cnc3c(cc(C(=O)NCc4ccc(Cl)cc4)c(=O)n3CC(=O)N3CC4(CC4)C3)n2)C1=O [Compound 44, 2-[3-(5-[2-(5-azaspiro[2.3]hexan-5-yl)-2-oxoethyl]-7-{[(4-chlorophenyl)methyl]carbamoyl}-6-oxo-5,6-dihydropyrido[2,3-b]pyrazin-2-yl)-2-oxoimidazolidin-1-yl]-2-methylpropanoic acid]
- pIC50 (hERG potassium channel): < 5.00
- CC50 at 4 days [1]: > 40 µM
- pIC50 [2]: > 6.00
- pEC50 [3]: > 6.00

Compound: CC1(C)CN(C(=O)Cn2c(=O)c(C(=O)NCc3ccc(Cl)cc3)cc3cc(N4CCN(C(C)(C)C(=O)O)C4=O)cnc32)C1 [Compound 45, 2-(3-(6-{[(4-chlorophenyl)methyl]carbamoyl}-8-(2-(3,3-dimethylazetidin-1-yl)-2-oxoethyl)-7-oxo-7,8-dihydro-1,8-naphthyridin-3-yl)-2-oxoimidazolidin-1-yl)-2-methylpropanoic acid]
- pIC50 (hERG potassium channel; [4]): < 5.00
- CC50 at 4 days [1]: > 40 µM
- pIC50 [2]: > 6.00
- pEC50 [3]: > 6.00

Compound: CC(C(=O)O)N1CCN(c2cnc3c(cc(C(=O)NCc4ccc(Cl)cc4)c(=O)n3CC(=O)N3CC(C)(C)C3)n2)C1=O (stereo not shown) [Compound 46, 2-[3-(7-{[(4-chlorophenyl)methyl]carbamoyl}-5-[2-(3,3-dimethylazetidin-1-yl)-2-oxoethyl]-6-oxo-5,6-dihydropyrido[2,3-b]pyrazin-2-yl)-2-oxoimidazolidin-1-yl]propanoic acid]
- pIC50 (hERG potassium channel; [4]): < 5.00
- CC50 at 4 days [1]: > 40 µM
- pIC50 [2]: > 6.00
- pEC50 [3]: > 6.00
